This test concerns NMDAR-mediated currents in dSPNs. Briefly: NMDAR-mediated uEPSCs and EPSCs in dSPNs, whole-cell voltage clamp. The test is classed as cell-based, mice. The note with it: for amplitude of NMDAR-mediated uEPSCs: muscarine and VU10010 5 μM in the presence of SKF81297, glutamate uncaging. As to the method:
For whole-cell voltage clamp recordings, patch pipettes were loaded with internal recording solution containing (mM): 120 CsMeSO3, 15 CsCl, 8 NaCl, 10 HEPES, 0.2 EGTA, 10 tetraethylammonium Chloride (TEA-Cl), 5 QX-314, 2 Mg-ATP, 0.3 Na-GTP; pH was adjusted to 7.25 with CsOH and osmolarity to ˜305 mOsm l^−1. All the recordings were made using a MultiClamp 700 A amplifier, and signals were filtered at 2 kHz and digitized at 10 kHz. Data were excluded when the series resistance changed >20% over the time course of the experiment. For perforated patch recordings, the internal recording solution comprised (in mM): 125 KMeSO4, 14 KCl, 2 MgCl2, 0.2 EGTA, 10 HEPES; pH was adjusted to 7.25 with NaOH and osmolarity to ˜280 mOsm l^−1. Amphotericin B was used to achieve electrical access through the perforated-patch method (Shen et al., 2007; 2008; herein incorporated by reference in their entireties). Capacitance current was continuously monitored during perforation by applying a 5-10 mV pulse from a holding potential of −70 mV. The amplifier bridge circuit was adjusted to compensate for series resistance and continuously monitored during recordings. Electrode capacitance was also compensated. Data were excluded when the input resistance (Ri) changed >20% over the time course of the experiment.
Glutamate uncaging was achieved using a Verdi/Mira (Coherent Laser Group, Santa Clara, Calif.) (Plotkin et al., 2014). 5 mM MNI-glutamate was superfused over the slice at 0.4 ml/hr using a syring pump and multi-barreled perfusion manifold (Cell MicroControls, Norfolk, Va.). The perfusion solution was (in mM): 124 NaCl, 3 KCl, 2 CaCl2, 1 NaH2PO4, 26 HEPES and 16.66 glucose, and also contained (in μM): 3 muscarine, 10 serine, 10 NBQX and 10 gabazine, plus or minus: 3 SKF81297 and/or 5 VU10010). Glutamate was uncaged adjacent to individual spines using 1 ms pulses of 720-725 nm light typically 10-20 mW in power at the sample plane. Photolysis power was tuned via a third Pockels cell modulator (Con Optics, Danbury, Conn.) to achieve uEPSCs≤5 pA. uEPSC amplitudes were measured from averaged (3-5 repetitions) traces. All uncaging experiments were performed in 0 mM Mg^2+-containing solutions.
To determine the situation in dSPNs, the effect of muscarine and VU10010 on NMDAR-mediated EPSCs evoked by uncaging glutamate on spine heads (uEPSCs) was examined in the presence of SKF81297.

Consider `Cc1cc(C)c2c(N)c(C(=O)NCc3ccc(Cl)cc3)sc2n1` [VU10010], for which the “amplitude of NMDAR-mediated uEPSCs” value is “significantly reduced the amplitude”. Also, where the note is “muscarine 3 μM + VU10010 5 μM, local electrical stimulation”, the “muscarine modulation of NMDAR-mediated EPSCs” value is on record as “augmented”. The “amplitude of NMDAR-mediated uEPSCs” value (listed as VU 10010) is listed as “suppressed NMDAR-mediated uEPSC currents”.

Source of the values: US9987242B2, “Treatment of Levodopa-induced Dyskinesias” (NORTHWESTERN UNIVERSITY, priority 2015, dated 2018).
